Earlier results on one compound are cited in US7189385B2, “Tooth whitening compositions” (Discus Dental Impressions, Inc., priority 1997, dated 2007).

For this series the following is noted: listed as GRAS, 21 CFR 184.1901.

Turning to `CC(=O)OCC(COC(C)=O)OC(C)=O` [Glyceryl triacetate], the toxicity entry is “extremely low order of toxicity”.
